Source: patent US20220119688A1, “LAMINATE, LIQUID CRYSTAL DISPLAY DEVICE, AND ORGANIC ELECTROLUMINESCENT DISPLAY DEVICE” (FUJIFILM Corporation, priority 2019, published 2022)

Test: Evaluation of moisture-heat resistance: turbidity (crystal precipitation) in the transparent resin film
Assay type: physicochemical
Conditions: amount of 3.5 parts by mass or more
Experimental: (Evaluation of Moisture-Heat Resistance)
The transparent resin films A-1 to A-14 and B-1 to B-3 were aged for 20 days under moisture heat conditions of a temperature of 85° C. and a humidity of 85%, and the presence or absence of turbidity (crystal precipitation) in the transparent resin film was evaluated according to the following standards.
(Evaluation Standards for Turbidity)
A: Almost no change in appearance such as turbidity due to crystal precipitation is observed.

| crystal precipitation | Structure (SMILES) |
| --- | --- |
| caused crystal precipitation | CCCCCCCCCOC(=O)/C(C#N)=C/C=C/N(CC)CC [UV-4] |
| caused crystal precipitation | CCCCC(CC)COC(=O)/C(C#N)=C\C=C1/CCCN1C (centres unmarked) [UV-5] |
